Experiments:
[1] = Particle size measurement by light scattering method; assay type: physicochemical; conditions: in distilled water, 1 mg/mL and 100 μg/mL
Experimental: Particle size measurement by light scattering method was performed on the water-soluble fullerene of the present invention. The water-soluble fullerene which was synthesized with Example 1 was dissolved in distilled water so that the final concentration might be 1 mg/mL and 100 μg/mL. This solution was measured with light scattering measuring apparatus DLS-7000 (Otsuka Electronics Co., Ltd.).

[2] = tested on: mouse colon cancer Colon26; experiment: In vivo anticancer activity by light irradiation in cancer bearing mice
Experimental: Administration routes were changed and anticancer activity in vivo by light irradiation was compared. Cancer bearing mice were prepared by removing a tumor block which had been passaged from mouse colon cancer Colon26 cells (provided by Cancer Chemotherapy Center of Cancer Research Society) by subcutaneous transplantation of BALB/c-nn (female, Charles River-Laboratories Japan, Inc.) and transplanting a strip piece onto the back subcutis of CDF1 mouse (female, Charles River Laboratories Japan, Inc.). The cancer bearing mice were used in the experiment in five days after transplantation in which cancer having a diameter of around 5 mm was formed in subcutis. […]
Cancer bearing mice to which water-soluble fullerene was not administered and which were not irradiated with light were used as a control group and the size of the tumor of the subcutaneous region was measured for each mouse with time. The cancer size was measured by actually measuring the major axis and the minor axis of the cancer with a slide caliper and calculated using a calculation formula reported by Winn (Natl. Cancer Inst Monogr., Vol. 2, p 113-138 (1960)).

[3] = Molecular weight of aggregate by high performance liquid chromatography (TSKgel G3000PWXL); assay type: physicochemical; conditions: HPLC, 50 mM phosphate buffer pH 6.9 with 0.3 M sodium chloride (20% acetonitrile for Example 1), PEG molecular weight markers
Experimental: Measurement of molecular weight of a fraction obtained by extracting the reaction liquid with equivalent amount of distilled water in Example 1 and a fraction after passing the aqueous layer through the cation exchange resin column was carried out using high performance liquid chromatography system 8020 (Tosoh Co., Ltd.) with TSKgel G3000PWXL (Tosoh Co., Ltd.). 50 mM phosphate buffer (pH 6.9) containing 20% acetonitrile and 0.3 M sodium chloride was used as mobile phase with a flow rate of mobile phase of 0.5 mL/min and the detection was performed at ultra-violet absorption of fullerene. Polyethylene glycols having known molecular weight (molecular weight 94,000 and 5,000) were used as molecular weight markers and the retention time was shown in FIG. 1.
As a comparative control, PEG having a methyl group at one end and an aminopropyl group at the other end and having a molecular weight 5000 was used, and the measurement of molecular weight of a fullerene-water-soluble polymer conjugate synthesized in a molar ratio of 1:10 following a method described in Example 1 of JP-A-09-235235 was carried out. 50 mM phosphate buffer (pH 6.9) containing 0.3 M sodium chloride was used as mobile phase with a flow rate of mobile phase of 1 mL/min and the detection was performed at ultra-violet absorption of fullerene. […]

[4] = Amount of active oxygen generated by ultrasonic irradiation, viable count measurement reagent SF; conditions: 200 μM solution, 1 MHz, duty cycle 30%, five minutes, output 1.5, 2.0, 2.5 and 3.0 W/cm^2
Experimental: The amount of active oxygen (superoxide anion, O2^−) generated by ultrasonic irradiation was measured using viable count measurement reagent SF with reference to a report by Ukeda (DOJIN NEWS, No. 96, p 1-6, 2000). A solution in which water-soluble fullerene of Example 2 was dissolved in a Hanks' balanced salt solution so that it might be 200 μM was dispensed to 35 mm dish by 750 μL. This was mixed with 600 μL of a Hanks' balanced salt solution and 150 μL of viable count measurement reagent SF and, while stirred, irradiated with ultrasonic waves of various output (1.5, 2.0, 2.5 and 3.0 W/cm^2) with a frequency of 1 MHz, output mode (Duty cycle) 30% for five minutes from the liquid surface using an sonodynamic therapy device US-700 (Ito Ultrashort Wave Company). After irradiation, absorbance of the solution at 450 nm was measured with a spectrophotometer DU-650. The absorbance of the solution irradiated with ultrasonic wave without adding a compound at 450 nm was assumed as control and the amount of generated O2 per minute was shown in FIG. 7.

RLmale 1 cells = experiment: In vitro cancer cell growth inhibitory activity by light irradiation; assay type: cell-based; conditions: 62.5-250 μM solutions, light irradiated for 40 minutes, cultured three days
Experimental: Cancer cell growth inhibitory activity in in vitro by light irradiation was measured. RLmale 1 cells (provided by Kyoto Pasteur Laboratory) were used as a cancer cell and these cells were incubated under culture conditions of 5% CO2, 95% atmosphere, at 37° C. in RPMI 1640 culture medium (Sigma Company, containing 10% fetal bovine serum) with 100 mm dish till they became 80% confluent. The water-soluble fullerene of Example 2 was dissolved in a culture medium of the same composition as used for culture of cancer cells under light shielding condition and after adjusted to the concentration of 250 μM, it was sterilized and filtered. The sterilized solution of 250 μM was diluted with a culture medium sequentially to prepare solutions of 125 μM and 62.5 μM. […] After the culturing for three days, 10 μL each of viable count measurement reagent SF (Nacalai Tesque Corporation) was added into each well, and after kept warm in an incubator for 80 minutes, absorbance at 450 nm was measured with a microplate leader VERSAmax (Japanese Molecular Device Company). The survival rate of cancer cells was determined assuming that the absorbance at 450 nm for the case in which compound of Example 2 was not added was 100% survival rate and the results are shown in FIG. 5.

[5] = Amount of active oxygen generated by light irradiation, cytochrome method; conditions: 200 μM solution mixed with cytochrome c in HBSS, light 220-800 nm, 30° C., 20 minutes
Experimental: The amount of generated active oxygen (superoxide anion, O2^−) was measured by cytochrome method. 200 μL of a solution in which cytochrome c (Nacalai Tesque Corporation) was dissolved in a Hanks' balanced salt solution (HBSS, pH 7.4, Lifetech Oriental Company) so that the final concentration might be 50 μM and 200 μL of a solution in which fullerene linked to one molecule of PEG (molecular weight 12000) prepared in Example 2 was dissolved in HBSS so that the final concentration might be 200 μM were mixed. This mixed solution was irradiated with light of various wavelengths (220-800 nm) with spectrophotofluorometer F-2000 (Hitachi, Ltd.) at 30° C. for 20 minutes. After irradiation, absorbance of the solution at 550 nm was measured with spectrophotometer DU-650 (Beckmann Company). The amount of generated O2— per minute was shown in FIG. 4 assuming a solution under light shielding condition at 30° C. for 20 minutes as control.

Row | Substance | particle diameter of aggregate [1] | increase of tumor volume ([2]; Colon26 bearing CDF1 mice, administration combined with light irradiation of tumor site, three consecutive days) | order of tumor suppression effect by administration route ([2]; subcutaneous or intra-tumor 6 mg/mL 100 μL, light 5 minutes after, intravenous 60 mg/mL 100 μL, light 24 hours after) | molecular weight of aggregate formed by self assembly [3] | amount of active oxygen on ultrasonic irradiation [4] | survival rate of cancer cells (RLmale 1 cells) | generation of O2− on light irradiation [5] | wavelength range of particularly significant O2− generation [5]
1 | Fullerene Linked to One Molecule of PEG (Molecular Weight 5000) [Example 1] | about 50 nm | Increase of a tumor volume was suppressed | subcutaneous administration<intra-tumor administration<intravenous administration | about 100,000 |  |  |  | 
2 | Fullerene Linked to One Molecule of PEG (Molecular Weight 12000) [Example 2] | about 100 nm |  |  |  | the amount of active oxygen increases according to the output increases | significantly decreases the survival rate of cancer cells as the addition amount thereof increases | generation of O2— was observed in a wide wavelength range from ultraviolet to visible light areas | 260 to 450 nm

From patent US20080004345A1, “Novel Water-Soluble Fullerene, Process for Producing the Same and Active Oxygen Generator Containing the Fullerene” (priority 2004, published 2008)
